Experiment: xn = mol fraction of the nth substance listed
Conditions: 100 kPa

CCCC[n+]1ccn(C)c1C.F[B-](F)(F)F + O=C1CCCN1
speed of sound [m/s]
Conditions | 293.15 K | 298.15 K | 303.15 K | 308.15 K
x1 = 0.0698 | 1659.6 | 1644.9 | 1629.3 | 1615.7
x1 = 0.1052 | – | 1649.6 | 1634.8 | 1621.9
x1 = 0.1469 | – | – | 1640.6 | 1628.7
x1 = 0.1948 | 1670.6 | 1659.8 | – | 1634.9
x1 = 0.2495 | 1672.1 | 1662.8 | – | 1638.3
x1 = 0.2945 | 1671.9 | 1663.3 | 1652 | 1640.1
x1 = 0.3428 | 1670.8 | 1662 | 1651.2 | 1639.9
x1 = 0.3964 | 1666.8 | 1658.3 | – | 1637.2
x1 = 0.4419 | 1661.9 | – | 1643.3 | 1633
x1 = 0.5004 | 1653.8 | 1645.7 | 1635.6 | 1625.8
x1 = 0.5563 | 1645.8 | 1637.1 | 1626.5 | 1617.3
x1 = 0.5949 | 1640.2 | 1630.9 | 1620.4 | 1611.1
x1 = 0.6419 | – | 1623.6 | 1613.1 | 1603.7
x1 = 0.6984 | 1626.6 | 1616.1 | 1605.4 | 1595.6
x1 = 0.7521 | 1622.1 | – | 1599.8 | 1589.4
x1 = 0.8031 | – | 1608.8 | 1596.7 | 1586.2
x1 = 0.8549 | 1623.2 | 1610.3 | 1597.8 | 1586.8
x1 = 0.9021 | – | 1615.8 | 1603.4 | 1591.6
x1 = 0.9564 | 1642.5 | 1628.7 | – | 1603.7

— a compilation of properties of binary mixtures (doi:10.1007/s10953-021-01127-x)
